Experiment [1] deals with MCF-7 human breast cancer cell line. The experiment is described as follows: In vitro cytostatic effect, alamarBlue assay, MCF-7. In kind it is cell-based. An excerpt:
Cell lines often function as the first model system of choice to study biological processes or to test the efficiency of drugs or drug conjugates and their cytotoxic effects. Immortal cell lines offer various benefits, for instance they are easy to handle, cost-effective and provide consistent sample and reproducible results. Nevertheless, cell lines also present the disadvantage that after a period of continuous growth, cell characteristics can change and dedifferentiate in culture. The serial passaging can cause genotypic and phenotypic variations and the state of confluency can also affect gene expression pattern in some cell lines. Due to this, the usage of internal standards during the evaluation of new potential candidates might be necessary to ensure comparability with previous results. The cytostatic effect of the novel GnRH-III bioconjugates was determined on HT-29 human colon cancer and MCF-7 human breast cancer cell lines by alamarBlue® assay. For a better comparison, the well-studied bioconjugates GnRH-III–[^8Lys(Dau=Aoa)] (K1) and GnRH-III–[^4Lys(Bu), ^8Lys(Dau=Aoa)] (K2) were used as positive controls and internal standards. The corresponding IC50 values were calculated by using nonlinear regression (sigmoidal dose response) (Figure 3, Table 2). Unfortunately, the D-Trp containing compounds 3 and 6 started to precipitate in both cell culture media at higher concentrations limiting the concentration down to a maximum of 10 µM. This effect could not be prevented by using DMSO instead of ddH2O for the preparation of the stock solutions. Unfortunately, the lower concentration range with a maximum of 10 µM was not sufficient to achieve the dose-response. […] Nevertheless, the replacement of ^6Asp by D-Asp, D-Glu or D-Trp led to a decreased cytostatic effect on the estimated cancer cell lines.
MCF-7 human breast adenocarcinoma cells were cultured in Dulbecco’s Modified Eagle Medium (DMEM, Lonza, Basel, Switzerland), supplemented with 10% (v/v) fetal bovine serum (FBS, Lonza), L-glutamine (2 mM, Lonza), non-essential amino acids (NEAA, Sigma-Aldrich Kft), sodium pyruvate (1 mM, Lonza) and penicillin-streptomycine (Lonza). […]
Cells were seeded to 96-well plates (Sarstedt, Nümbrecht, Germany, 5 × 10^3 cells/well) one day prior to the treatment in complete cell medium. […] Fluorescence was detected using Synergy H4 multi-mode microplate reader (BioTek, Winooski, VT, USA), excitation and emission wavelengths were set to 570 and 620 nm, respectively. Cytostasis was measured using 4 parallels, each experiment was repeated twice. Cytostatic effect (and IC50 values) were calculated by using nonlinear regression (sigmoidal dose response) with Origin Pro8 (OriginLab Corp., Northampton, MA, USA.).

In a further experiment the target is T1, GnRH-RI (Homo sapiens, UniProt P30968).
T1 sequence (P30968 1-328): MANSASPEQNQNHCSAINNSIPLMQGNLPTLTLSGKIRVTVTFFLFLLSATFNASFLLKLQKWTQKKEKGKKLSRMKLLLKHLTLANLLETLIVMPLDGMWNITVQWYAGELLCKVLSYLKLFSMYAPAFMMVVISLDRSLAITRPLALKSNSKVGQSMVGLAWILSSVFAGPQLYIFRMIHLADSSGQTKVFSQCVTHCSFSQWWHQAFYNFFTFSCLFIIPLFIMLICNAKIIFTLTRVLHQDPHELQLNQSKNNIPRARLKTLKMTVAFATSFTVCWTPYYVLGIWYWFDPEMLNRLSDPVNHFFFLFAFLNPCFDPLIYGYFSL
The experiment is described as follows: Competitive inhibition of [125I][6D-Trp]-GnRH-I binding, human prostate cancer membranes. Details: human prostate cancer cells were obtained from a patient at the time of initial surgical treatment; from tissue; host or cells: human prostate cancer specimen from a patient (surgery); membrane homogenate. Here is the method: To investigate the binding affinity of the novel compounds to the GnRH-receptor, an in vitro ligand competition assay has been performed on human pituitary and GnRH-R positive human prostate cancer tissues. Hereby, the displacement of radiolabeled triptorelin by the unlabeled bioconjugates 1, 2, 4 and 5 was determined. For a better comparison, the bioconjugates K1 and K2 were also analyzed and used as reference. The obtained results summarized in Table 3 point out that all bioconjugates replaced [^125I]-triptorelin with IC50 values in low nanomolar range. […] (1.6 nM and 0.9 nM) and GnRH-II–[D-Lys^6(Dau=Aoa)] (4.2 nM and 2.1 nM).
Radiolabeled triptorelin was used for displacement studies to evaluate the binding affinity of the conjugates K1, K2, 1, 2, 4 and 5 to GnRH-RI on human pituitary and human prostate cancer cells. […] The binding affinities of the nonradio-labeled GnRH-III bioconjugates to GnRH-RI were determined by displacement of [^125I]-GnRH-I-[^6D-Trp] performing an in vitro ligand competition assay as recently reported. […] Supernatants were aspirated and the bottoms of the tubes containing the pellet were cut off and counted in a gamma counter. Protein concentration was determined by the method of Bradford using a Bio-Rad protein assay kit (Bio-Rad Laboratories, USA). […]

Structures are written as SMILES. Like-named read-outs stand apart in the source and are kept apart here. Non-standard residues stand in square brackets, D forms with d. Residues, ends and D or L forms follow the SMILES beside them. *: point of attachment. Daunorubicin(13-NOCH2CO) = COc1cccc2c1C(=O)c1c(O)c3c(c(O)c1C2=O)C[C@@](O)(C(C)=NOCC(=O)*)C[C@@H]3O[C@H]1C[C@H](N)[C@H](O)[C@H](C)O1; pGlu = O=C1CC[C@@H](C(=O)O)N1; Butyryl = CCCC(=O)*

Broadly, the IC50 is the concentration at which inhibition is half-maximal. For the molecule `COc1cccc2c1C(=O)c1c(O)c3c(c(O)c1C2=O)C[C@@](O)(C(C)=NOCC(=O)NCCCC[C@H](NC(=O)[C@H](Cc1c[nH]c2ccccc12)NC(=O)[C@@H](CCC(=O)O)NC(=O)[C@H](Cc1c[nH]cn1)NC(=O)[C@H](CO)NC(=O)[C@H](Cc1c[nH]c2ccccc12)NC(=O)[C@H](Cc1c[nH]cn1)NC(=O)[C@@H]1CCC(=O)N1)C(=O)N1CCC[C@H]1C(=O)NCC(N)=O)C[C@@H]3O[C@H]1C[C@H](N)[C@H](O)[C@H](C)O1` [compound 2, [6D-Glu, 8Lys(Dau=Aoa)]] ([pGlu]HWSH[dE]WK(Daunorubicin(13-NOCH2CO))PG-NH2), the IC50 in experiment [1] (24 h) was 6.8 ± 1 µM; at GnRH-RI (displacement of [125I]-triptorelin, human prostate cancer membranes, mean ± SE, read-out: IC50 prostate cancer), 0.0104 ± 0.0013 µM.
On to `CCCC(=O)NCCCC[C@H](NC(=O)[C@H](Cc1c[nH]c2ccccc12)NC(=O)[C@H](Cc1c[nH]cn1)NC(=O)[C@@H]1CCC(=O)N1)C(=O)N[C@@H](Cc1c[nH]cn1)C(=O)N[C@H](CCC(=O)O)C(=O)N[C@@H](Cc1c[nH]c2ccccc12)C(=O)N[C@@H](CCCCNC(=O)CON=C(C)[C@]1(O)Cc2c(O)c3c(c(O)c2[C@@H](O[C@H]2C[C@H](N)[C@H](O)[C@H](C)O2)C1)C(=O)c1c(OC)cccc1C3=O)C(=O)N1CCC[C@H]1C(=O)NCC(N)=O` [compound 5, [4Lys(Bu), 6D-Glu, 8Lys(Dau=Aoa)]] ([pGlu]HWK(Butyryl)H[dE]WK(Daunorubicin(13-NOCH2CO))PG-NH2), for which the IC50 is 7 ± 1.2 µM in experiment [1] (24 h treatment, then 48 h in complete medium, alamarBlue, mean ± SE, read-out: MCF-7 IC50) and 0.0116 ± 0.002 µM on GnRH-RI.

Values taken from publication PMC5905287, “Synthesis and in vitro biochemical evaluation of oxime bond-linked daunorubicin–GnRH-III conjugates developed for targeted drug delivery” (Beilstein Journal of Organic Chemistry, 2018).
